ChEMBL document CHEMBL2094269, “WEHI/Eskitis Trypanosoma b. brucei screening data”

Experiments:
[1] = test system: Trypanosoma brucei brucei; assay: microbe, parasite or virus in culture; format: functional, organism-based, STIB 795
Description: DNDI: Inhibition of Human African Trypanosomiasis (HAT), STIB 795, in vitro

[2] = DNDI: Cytotoxicity against human MRC-5 lung fibroblast cells.; conditions: IC50

Structure (SMILES) | IC50 ([1]; Trypanosoma brucei, STIB 795) | IC50 [2] | IC50 [1]
CCCN(CCC)C(=O)Cn1ccc(=N)c2ccccc21 | 3.52 µM | > 41.7 µM | 
CN(C)c1cc[n+](Cc2c(Cl)cccc2Cl)cc1 | ≤ 0.044 µM | > 41.7 µM | 
CNCCCC1Sc2ccccc2Oc2ccccc21 (configuration not stated) | 4.7 µM | > 41.7 µM | 
COc1ccc(C(=O)O/N=C(\N)c2ccccn2)c(OC)c1 | 4.49 µM | > 20.8 µM | 
COc1ccccc1NC(=O)c1cc(Cl)nnc1Cl | 5.44 µM | > 20.8 µM | 
Cc1ccc(C(=O)O/N=C(\N)Cc2cccs2)c(Cl)c1 | 0.768 µM | > 41.7 µM | 
COCc1cc(O)nc(Nc2nc3ccc(C)cc3o2)n1 | 5.16 µM | > 20.8 µM | 
Cc1ccc2[nH]c(/C(C#N)=C/c3ccc(O)c(O)c3)nc2c1 | 1.51 µM | > 20.8 µM | 
CCOC(=O)C(=Cc1cc(=O)c(OC)co1)C(=O)OCC | 5.5 µM | > 20.8 µM | 
Cn1c(Cl)cnc1C1CC(=O)c2cc(Cl)ccc2O1 (configuration not stated) | 0.81 µM | > 41.7 µM | 
N=C(NOC(=O)C12CC3CC(CC(C3)C1)C2)c1ccccc1 | 0.322 µM | > 20.8 µM | 
NC(=NOC(=O)c1cccc2ccccc12)c1ccccn1 | 3.58 µM | > 20.8 µM | 
CN(C)c1ccc(/C=C/c2cc[n+](C)c3ccccc23)cc1 | 0.038 µM | > 2.08 µM | 
NCC(O)(c1ccc(Cl)cc1)c1ccc(Cl)cc1 | 5.33 µM | > 20.8 µM | 5.39 µM
Cc1cccc2cc(-c3ccccc3)c(N3CCNCC3)nc12 | 1.45 µM | > 4.17 µM | 
O=C(N/N=C\c1cc(Cl)ccc1O)c1cccs1 | 10.9 µM | > 41.7 µM | 
N/C(=N\OC(=O)c1cccs1)c1ccccc1Cl | 0.766 µM | > 20.8 µM | 
CC1(C)OC(C)(C)/C(=C/c2ccc3cccnc3c2)C1=O | 5.21 µM | > 20.8 µM | 
Cn1ccc(/C=C2/CCC/C(=C\c3ccn(C)n3)C2=O)n1 | 5.61 µM | > 20.8 µM | 
COc1ccc(NCC2COc3ccccc3C2=O)cc1 (configuration not stated) | 4.91 µM | > 41.7 µM | 
COC12C=CC(CC1)C1C(=O)c3cccc(O)c3C(=O)C12 (configuration not stated) | 2.48 µM | > 20.8 µM | 
CN1C=C/C(=C\C=C2/C=Nc3ccccc32)c2ccccc21 | 0.311 µM | > 4.17 µM | 
CC(C)COc1ccc2c(c1)c1c3n2CNCC3CCC1 (configuration not stated) | 2.88 µM | > 20.8 µM | 
c1ccc(Nc2nc(-c3ccccc3)c3ccccn23)cc1 | 5.38 µM | > 41.7 µM | 
CC(C)=CC1C(C(=O)O/N=C(\N)c2ccccc2)C1(C)C (configuration not stated) | 1.16 µM | > 41.7 µM | 
CC(C)Cc1ccc(C(C)C(=N)NC2CCCCC2)cc1 (configuration not stated) | 5.45 µM | > 20.8 µM | 

Structure (SMILES) | IC50 ([1]; Trypanosoma brucei, STIB 795) | IC50 [2] | IC50 [1]
C=CC[n+]1ccc(/C=C/c2ccccc2O)c2ccccc21 | 5.28 µM | > 41.7 µM | 
O=C(CNc1ccc(Cl)cc1)N/N=C/c1cccnc1 | 1.75 µM | > 4.17 µM | 
C/C(=N\NC(=O)c1cccc2ccccc12)c1ccccn1 | 2.34 µM | > 4.17 µM | 
COc1ccc(CCON2C(N)=NC(N)=NC2(C)C)cc1 | ≤ 3.11 µM | > 4.17 µM | 
O=C(N/N=C/c1cc(Cl)ccc1O)c1ccc(F)cc1 | ≤ 10.4 µM | > 20.8 µM | 
CN(C)CCCOC1=Cc2ccccc2Cc2ccccc21 | 6.6 µM | > 41.7 µM | 
Cc1cccc(NC(=O)Cn2cc(CO)c3ccccc32)c1 | 5.39 µM | > 4.17 µM | 
C1=C(N2CCNCC2)c2ccccc2Sc2ccccc21 | 3.16 µM | > 20.8 µM | 
CCN(CC)c1ccc(C2N(C)c3ccccc3N2C)cc1 | 2.49 µM | > 41.7 µM | 
C[n+]1ccccc1C=C1C=CN(c2ccc(Cl)cc2)C=C1 | 0.028 µM | > 4.17 µM | 
COc1ccc(C(C)(C)C#Cc2c(C)nc(N)nc2N)cc1 | ≤ 3.48 µM | > 4.17 µM | 
Nc1nonc1C(=O)N/N=C/c1c(O)ccc2ccccc12 | 5.33 µM | > 4.17 µM | 
CC(C)(C)c1ccc(C(=O)O/N=C(\N)c2ccncc2)cc1 | 0.95 µM | > 41.7 µM | 
CCCC[n+]1cc(-c2ccccc2)nc(N2CCCCC2)n1 | 7.6 µM | > 41.7 µM | 
CNCCCC1Sc2ccccc2C(C)c2ccccc21 (configuration not stated) | 4.88 µM | > 20.8 µM | 
O=C1c2cccc3c(N4CCOCC4)ccc(c23)C(=O)N1O | 8.03 µM | > 41.7 µM | 
O=C1/C(=C/c2ccccc2)CCS(=O)(=O)c2ccccc21 | 5.55 µM | > 41.7 µM | 
CC(=O)NC(c1cccs1)c1ccc2cccnc2c1O (configuration not stated) | 0.924 µM | 0.984 µM | 
COc1ccc2c(c1)S/C(=C/C(=O)c1ccncc1)N2C | 5.01 µM | > 41.7 µM | 
COc1ccc(OCC(=O)N/N=C(\C)c2ccccn2)cc1 | 5.26 µM | > 20.8 µM | 
O=C(Nc1c2ccccc2nc2ccccc12)c1ccncc1 | 1.2 µM | 5.82 µM | 
O=S(=O)(Nc1cccc2cccnc12)c1ccccc1O | 0.521 µM | > 10.4 µM | 
CCc1ccccc1-n1c(=O)oc2ccc(Cl)cc2c1=O | 5.13 µM | > 4.17 µM | 
O=C(/C=C/c1ccccc1)ONC(=O)c1ccc(Cl)cc1 | 4.45 µM | > 20.8 µM | 
Cc1oc2c(O)c(O)ccc2c(=O)c1Oc1ccccc1F | 0.133 µM | > 41.7 µM | 
NCCNCCC=C(c1ccc(F)cc1)c1ccc(F)cc1 | 0.265 µM | > 20.8 µM | 

Structure (SMILES) | IC50 ([1]; Trypanosoma brucei, STIB 795) | IC50 [2] | IC50 [1]
COc1cc(OC)nc(-n2ncc(Cl)c(Cl)c2=O)n1 | 5.32 µM | 4.53 µM | 
Cn1c2ccccc2c2nnc(N/N=C/c3ccccn3)nc21 | 0.52 µM | > 1.04 µM | 
Cc1cc(C)[n+]2nc3n(-c4ccccc4)c(C)cc(C)c-3c2n1 | 4.46 µM | > 41.7 µM | 
CCOC(=O)c1cnc2c(OC)cccc2c1NCCCO | 8.61 µM | > 41.7 µM | 
CCn1c(Cc2nc3ccccc3n2CC)nc2ccccc21 | 3.87 µM | > 41.7 µM | 
COc1ccc(/C(N)=N/OC(=O)c2ccccc2Cl)cc1 | 1.21 µM | > 20.8 µM | 
Clc1cc2c(c3ncccc13)OCN(CC1CCCO1)C2 (configuration not stated) | 6.81 µM | 6.72 µM | 
NCCCCCOC(c1ccc(F)cc1)c1ccc(F)cc1 | 5.53 µM | > 41.7 µM | 
CN(C)c1ccc(/C=C/c2cc(-c3ccccc3)o[n+]2C)cc1 | 0.133 µM | > 2.08 µM | 
C(=C\c1ccc(OC2CN3CCC2CC3)cc1)/c1ccccc1 (configuration not stated) | 5.31 µM | > 41.7 µM | 
Cc1ccc(Nc2cc(C)nc3c(C)c(C)cc(N)c23)c(C)c1 | 5.12 µM | > 41.7 µM | 
CC(=O)NC(c1ccccc1C)c1ccc2cccnc2c1O (configuration not stated) | 0.655 µM | > 1.04 µM | 
O=C1C=C/C(=N\Nc2ccc3c(c2)OCCO3)c2cccnc21 | 1.43 µM | > 20.8 µM | 
CN(C)CCCC1(O)c2ccccc2C2(CC2)c2ccccc21 | 0.436 µM | > 10.4 µM | 
O=C(/C=C/c1ccccc1Cl)Nc1ccc2ccccc2c1 | 6.12 µM | > 41.7 µM | 
NCC(c1ccc(Cl)cc1)c1ccc(-c2ccccc2)cc1 (configuration not stated) | 4.59 µM | > 41.7 µM | 
C/C(=N\NC(=O)c1ccc(Cl)c(Cl)c1)c1ccccn1 | 5.16 µM | > 41.7 µM | 
Cc1cc(C)n(-c2ccc3c(Cl)cc(Cl)c(O)c3n2)n1 | 4.79 µM | > 41.7 µM | 
COc1ccc(/C(N)=N/OC(=O)N2CCOCC2)cc1OC | 2.98 µM | > 20.8 µM | 
NCC12CC3CC(C1)CC(c1ccc(Cl)c(Cl)c1)(C3)C2 | 2.54 µM | > 41.7 µM | 
CCOC(=O)N/N=C1/c2ccccc2-c2nc3nonc3nc21 | 0.8 µM | > 20.8 µM | 
CCOC(=O)c1nc[nH]c1/N=N/c1ccc(O)c2ccccc12 | 0.927 µM | 3.83 µM | 
CCN1CCCC(Nc2ccnc3cc4ccccc4cc23)C1 (configuration not stated) | 0.275 µM | 4.95 µM | 
COc1ccc2c(c1)C(=NN=C(N)N)c1cc(OC)ccc1-2 | 4.23 µM | > 41.7 µM | 
NC1c2ccccc2CC1Cc1ccc(Cl)cc1Cl (configuration not stated) | 5.23 µM | > 20.8 µM | 
CN1/C(=C/C=C/c2oc3ccccc3[n+]2C)Oc2ccccc21 | 0.253 µM | > 2.08 µM | 
